{"source": "patent US20210267923A1", "about": "“SUCCINIC ACID AND DERIVATIVES FOR THE TREATMENT OF HAEMOTOLOGICAL DISORDERS” (ENZENE BIOSCIENCES LIMITED, priority 2018, published 2021)", "key": {"TF-1 cells [1]": {"test_system": "TF-1 cells", "test": "In-vitro bioassay in TF1 cell lines (proliferation, alamar Blue)", "conditions": "treated 48 h without rhGMCSF, normalized to cell control"}, "WI38 cells": {"test_system": "WI38 cells", "conditions": "WI38 fibroblasts, mitogen-deprived medium (0.1% FBS), 48 h in presence of succinate"}, "TF-1 cells [2]": {"test_system": "TF-1 cells", "conditions": "normalised to untreated cells (CC), triplicates", "protocol": "For RNA-seq analysis, TF-1 cells were either treated with the positive control GMCSF (GM) or with succinate (E01). Untreated TF-1 cells (CC) were used as a control to determine basal gene expression. RNA-seq was performed in triplicates from all the three groups. The gene expression from E01 or GM group was normalised to the expression of CC."}, "platelet counts": {"test_system": "platelet counts", "conditions": "rats, 100 mg/kg twice daily P.O. for 7 days, versus water control", "protocol": "A preliminary study was conducted in rats using pure succinic acid (from commercial source). Six animals were used in each group (control and treated). The treated group received a dose of 100 mg/kg succinic acid twice daily P.O. whereas the control group received water of same volume as in treated twice daily. CBC (Complete Blood counts) was performed from the blood withdrawn from individual rats."}}}
{"compound": "O=C([O-])CCC(=O)[O-].[Mg+2]", "note": "[Mg salt of succinic acid]", "values": [{"measurement": "cellular proliferation in TF-1 cells", "setting": "TF-1 cells [1]", "value": "showed proliferation activity"}]}
{"compound": "O=C(O)CCC(=O)O", "note": "[succinate]", "values": [{"measurement": "cell cycle entry from quiescence", "setting": "WI38 cells", "value": "entered in the cell cycle even in the absence of mitogens"}, {"measurement": "gene expression changes (RNA-seq)", "setting": "TF-1 cells [2]", "value": "Several genes related to platelet differentiation pathway in succinate treated cells were identified"}]}
{"compound": "O=C([O-])CCC(=O)[O-].[Na+].[Na+]", "note": "[Sodium Succinate]", "values": [{"measurement": "cellular proliferation in TF-1 cells", "setting": "TF-1 cells [1]; listed as Na salt of succinic acid", "value": "showed proliferation activity"}]}
{"compound": "O=C([O-])CCC(=O)[O-].[Ca+2]", "note": "[Ca salt of succinic acid]", "values": [{"measurement": "cellular proliferation in TF-1 cells", "setting": "TF-1 cells [1]", "value": "showed proliferation activity"}]}
{"compound": "O=C(O)CCC(=O)O", "note": "[succinic acid, Succinic acid]", "values": [{"measurement": "cellular proliferation in TF-1 cells", "setting": "TF-1 cells [1]", "value": "dose dependent proliferation was observed"}, {"measurement": "platelet counts", "setting": "platelet counts", "value": "substantially increase the platelet counts"}]}
